Experiments:
Assay type in all cases: cell-based
[1] = test system: Chlamydia trachomatis (Ctr) strain L2/434/Bu; assay: Chlamydia trachomatis progeny infection of HeLa229 cells, cellular protection by compounds at 25 μM (GFP-signal, Image J quantification); settings: HeLa229 cells pretreated 1 hour, Ctr MOI1, progeny infection fixed 48 hpi, versus solvent-treated cells
Procedure: HeLa229 (ATCC CCL-2.1). Cells were grown in RPMI1640 medium (Glutamax, 10% FBS, w/o HEPES) (Invitrogen).
Chlamydia trachomatis (Ctr). Laboratory-adapted strain L2/434/Bu (ATCC VR902B) was used in assays. Full biological and genetic information is available for this strain including complete genome sequence and defined proteome. This strain has a relatively low particle to infectivity ratio, perform efficient cell infection and has a higher viability than standard genital tract isolates with faster developmental cycle. Culture conditions have been described in (Wang Y., Kahane S., Cutcliffe L. T., Skilton R. J., Lambden P. R., Clarke I. N. Development of a transformation system for Chlamydia trachomatis: Restoration of glycogen biosynthesis by acquisition of a plasmid shuttle vector. PLoS Pathogen, 2011, 7(9):e1002258. doi: 10.1371/journal.ppat.1002258).
Compound application during Chlamydia trachomatis infection. HeLa229 cells were pretreated with Retro-2 and Retro-2 derivatives in concentrations of 25 μM for 1 hour until Chlamydia trachomatis (MOI1) were added to the cells. Compounds were present during infection. To obtain progeny infection, compound treated cells were lysed 24 h post infection (hpi) and lysate was used to infect fresh HeLa 229 cells. Infected cells of progeny infection were fixed with 4% Paraformaldehyde 48 hpi. Cells were stained for DAPI and Chlamydia trachomatis were detected by GFP-signal. Images are representative of n=2 independent experiments. Quantification of infected cells by Chlamydia trachomatis was realized from microscopy images with Image J software (FIG. 8) and cellular protection by compounds at 25 μM was then determined (Table 1) by comparison with solvent-treated cells (control) with the following equation: […]

[2] = test system: Chlamydia trachomatis (Ctr) strain L2/434/Bu; assay: Chlamydia trachomatis (Ctr) infectivity assays in HeLa229 cells with Retro-2 at 25, 50 and 75 μM (HSP60 immunoblot, GFP-signal)
Procedure: (§1) HeLa229 (ATCC CCL-2.1) were grown in RPMI1640 medium (Glutamax, 10% FBS, w/o HEPES) (Invitrogen). Stable HeLa229 cell lines were established to constantly label the Golgi apparatus (B4GalT1 in a pCMV6-AC-mRFP cloning vector, OriGene) and the ER (KDEL in a pDsRed2-ER expression vector).
Chlamydia trachomatis (Ctr). Laboratory-adapted strain L2/434/Bu (ATCC VR902B) was used in assays. Full biological and genetic information is available for this strain including complete genome sequence and defined proteome. This strain has a relatively low particle to infectivity ratio, perform efficient cell infection and has a higher viability than standard genital tract isolates with faster developmental cycle. […]
(A) Cells with primary infection were lysed 24 h post infection (hpi). […] Progeny infection was lysed 24 hpi and analyzed together with primary infection samples by immunoblot. Chlamydial growth was detected with antibodies against chlamydial HSP60 protein and Actin was used as loading control (FIG. 6).
(B) Infected cells were fixed with 4% Paraformaldehyde 24 hpi. Cells were stained by Alexa-680 coupled Phalloidin and Ctr were detected by GFP-signal (FIG. 7).

[3] = test system: Simkania negevensis (Sn) strain Z; assay: Simkania negevensis (Sn) infectivity assays in HeLa229 cells (primary and progeny infection; GroEL immunoblot, inclusion size/number, microscopy, TEM)
Procedure: as §1
Simkania negevensis (Sn) strain Z (ATCC VR-1471) was prepared as described previously (Mehlitz A, Karunakaran K, Herweg J A, Krohne G, van de Linde S, Rieck E, Sauer M, Rudel T. The chlamydial organism Sn forms ER vacuole contact sites and inhibits ER-stress. Cell Microbiol 2014; 16(8):1224-1243).
Briefly, HeLa229 cells were grown to 50-70% confluence, were inoculated with Sn in RPMI1640 with 5% FBS, for 6 h at 35° C. in a humidified incubator at 5% CO2. Medium was replaced by infection medium (RPMI1640, Glutamax, 5% FBS, w/o HEPES) and growth was allowed for 3 days. Cells were mechanically detached and bacteria were released using ˜2-5 mm glass beads (Carl Roth). Low speed supernatant (600×g, 4° C. and 5 min) was subjected to high-speed centrifugation (20,000×g, 4° C. and 30 min) to pellet bacteria. Bacteria were washed twice with 5 ml SPG (250 mM sucrose, 50 mM sodium phosphate, 5 mM glutamate, pH 7.4), aliquoted and stored at −80° C. in SPG.
40,000 HeLa cells were seeded in 12-well cluster plates, inhibitor-treated and infected as indicated in the respective experiments.
For infectivity assays cells were either fixed and stained at indicated time points (FIG. 2, 4; inclusion formation/primary infection) or bacteria were released via one freeze thaw cycle (−70° C./37° C.) followed by mechanical release through pipetting and transfer to fresh HeLa229 cells (1:25-1:50, progeny/infectivity). Cells were centrifuged for 1 h at 35° C. and medium exchanged to infection medium. […] Infectivity assays were imaged on an automated fluorescence microscope Leica DMIR (FIG. 4). Numbers and average sizes of the SCV as well as host cell numbers were determined via GroEL and DAPI staining and images were analysed and quantified using FIJI (ImageJ) and Excel (Microsoft). […]

Structure (SMILES)	Cellular protection at 25 μM (%) [1] [%]	other results
Cc1nc(-c2ccc(C3Nc4ccccc4C(=O)N3c3ccccc3)s2)cs1 (centres unmarked) [Compound 25, 2-(5-(2-methylthiazol-4-yl)thiophen-2-yl)-3-phenyl-2,3-dihydroquinazolin-4(1H)-one]	100	–
CN1c2ccccc2C(=O)N(c2ccccc2)C1c1ccc(-c2csc(-c3ccc(F)cc3)n2)s1 (centres unmarked) [VP-89, 2-(5-(2-(4-fluorophenyl)thiazol-4-yl)thiophen-2-yl)-1-methyl-3-phenyl-2,3-dihydroquinazolin-4(1H)-one]	88.5	–
Cc1ccc(C2Nc3ccccc3C(=O)N2c2ccccc2)s1 (centres unmarked) [Retro-2, 2-(5-methylthiophen-2-yl)-3-phenyl-2,3-dihydroquinazolin-4(1H)-one]	18.1	Ctr Hsp60 detection in the progeny infection ([2]; 75 μM of Retro-2, immunoblot, FIG. 6): almost no Ctr Hsp60 detection; Effect on Ctr development (Hsp60 western, GFP-expressing Ctr inclusions) ([2]; HeLa229 cells, Retro-2 25, 50 and 75 μM, primary infection 24 hpi): strong inhibitory effect; Concentration at which maximal inhibition of Sn replication was observed ([3]; HeLa cells, FIGS. 1-4): 75 µM; Effect on primary and progeny infection for Sn ([3]; HeLa cells, Retro-2 at 25 and 75 μM, GroEL western, inclusion size, inclusion number, microscopy): inhibitir effect on primary and progeny infection; Sn inclusions morphology (transmission electron microscopy) ([3]; infected HeLa cells, versus DMSO-treated control, FIG. 5): sub-vacuolar membranes were highly enlarged and contained excessive membrane material
CN1c2ccccc2C(=O)N(c2ccccc2)C1c1ccc(Br)s1 (centres unmarked) [RN-2-016, 2-(5-bromothiophen-2-yl)-1-methyl-3-phenyl-2,3-dihydroquinazolin-4(1H)-one]	91.8	–
Cc1nc(-c2ccc(C3N(C)c4ccc(F)cc4C(=O)N3c3ccccc3)s2)cs1 (centres unmarked) [Retro-2.1, 6-fluoro-1-methyl-2-(5-(2-methylthiazol-4-yl)thiophen-2-yl)-3-phenyl-2,3-dihydroquinazolin-4(1H)-one]	100	–
Cc1nc(-c2ccc(C3N(C)c4ccccc4C(=O)N3c3ccccc3Cl)s2)cs1 (centres unmarked) [RN-3-072, 3-(2-chlorophenyl)-1-methyl-2-(5-(2-methylthiazol-4-yl)thiophen-2-yl)-2,3-dihydroquinazolin-4(1H)-one]	100	–

From patent US9598406B2, “Quinazolinone derivatives for use in the treatment of chlamydiales infections” (Commissariat a l'Energie Atomique et aux Energies …, priority 2015, dated 2017)
